Assay results taken from a melting point compilation (Tetko et al.; mined from patent text by program, amines drawn as free bases though some values may be those of a salt).
Residues, ends and D or L forms follow the SMILES beside them. *: point of attachment. Cbz = O=C(OCc1ccccc1)*

Row | Compound | melting point [°C]
1 | O=C1NCc2cc(C(=O)CCCl)ccc2N1 | > 270
2 | COc1cc(CCNC(=O)Cc2ccc(Br)cc2)cc(OC)c1 | 86 to 88
3 | Fc1ccc(-c2nc3c(c(=S)[nH]2)CCCC3)cc1 | 198 to 200
4 | COCCc1nc2c(N)nc3ccccc3c2n1CCCNC(=O)c1cc2ccccc2cn1 | 198
5 | C(=Cc1ncon1)c1ccccc1 | 82
6 | O=C1CCc2c([nH]c3ccc(Cl)cc23)C1 | 194 to 196
7 | Cn1nnnc1-c1cn(C)c2cc(Br)ccc2c1=O | 292 to 294
8 | NC(=O)c1sc2ncnc(-c3cc4c(c(OCc5ccccc5)c3)CCO4)c2c1N | 239
9 | ClCc1csc(-c2ccc(Cl)c(Cl)c2)n1 | 93 to 96
10 | COc1ccc(-c2c3c(cc4ccc(OC)cc24)C(=O)NC3)cc1 | 290 to 292
11 | O=C(O)c1oc2ccccc2c1CCc1ccccc1 | 169 to 172
12 | Nc1sc2c(c1C(=O)c1cccc3ccccc13)CCCC2 | 137 to 140
13 | COc1ccc(C2=Nc3cccnc3Nc3ccccc32)cc1 | 198 to 200
14 | NC(=O)CCC(NC(=O)OCc1ccccc1)C(=O)NCC(=O)NCC(=O)NC(CO)C(=O)NC(CC(N)=O)C(=O)NC(Cc1ccccc1)C(N)=O (stereo not given) (Cbz-QGGSNF-NH2; configuration not given here) | 225 to 227
15 | CN1CC(O)N(c2nnc(SCc3cccs3)s2)C1=O (stereo not given) | 129 to 132
16 | CC(C)CC(=O)Nc1cccc(-c2ccnc3c(-c4ccc5[nH]ccc5c4)cnn23)c1 | 167 to 169
17 | CCCOc1ccccc1-c1nc2nc(NC)nnc2c(=O)[nH]1 | 261 to 263
18 | O=C(Nc1ccc(-n2nc(C(F)(F)F)cc2C(F)(F)F)cc1)c1cccc(F)c1 | 148 to 151
19 | Clc1cc(-c2ccccn2)ccn1 | 80 to 81
20 | Cc1ccc(N2C(=O)C(O)=C(C(=O)c3ccc(OC(F)(F)F)cc3)C2c2ccc(Cn3cncn3)cc2)nn1 (stereo not given) | 224
21 | Cc1ccc(S(=O)(=O)Oc2ccccc2-c2cc3c(C(N)=O)cccc3[nH]2)cc1 | 135

Row | Compound | melting point [°C]
22 | OCC1OC(n2c(Cl)nc3ccc(Cl)cc32)C(O)C1O (stereo not given) | 162 to 163
23 | Cc1cc(C)cc(C(=O)c2c(-c3ccc(OCCN(C)C)cc3)oc3ccccc23)c1 | 132 to 135
24 | OCc1cn(-c2ccc(SC(F)(F)F)c(Cl)c2)cn1 | 105 to 106
25 | Nc1nc(C(F)(F)F)c(CN2C(=O)C3(COc4cc5c(cc43)OCO5)c3ccccc32)s1 (stereo not given) | 165 to 167
26 | CCCCC(CC)n1c(CC)nc2c1C(=O)N(C)CN2c1ccc(Cl)cc1Cl (stereo not given) | 94 to 95
27 | CC(C)[C@H](NC(=O)OCc1ccccn1)C(=O)N[C@@H](Cc1ccccc1)[C@@H](O)C[C@H](Cc1ccccc1)NC(=O)OCc1cccnc1 | 169 to 171
28 | OCc1cc(Cc2ccccc2)cs1 | 33 to 34
29 | CCOC(=O)c1nc2cnn(CC)c2nc1C | 64 to 65
30 | CCOC(=O)c1cc(=O)c2c(OCC(O)COc3ccccc3C)cccc2o1 (stereo not given) | 75 to 76
31 | O=[N+]([O-])c1ccc(N=C(NC(=S)NCc2cccnc2)c2ccccc2)cc1 | 179 to 180
32 | CCCCCCCCCCCCCCCCC#CCC(CO)COCCCCCCCCCCCCCCCC (stereo not given) | 46 to 47
33 | CC(C)c1cccc(C(C)C)c1NC(=O)NC1CCc2ccccc2C1 (stereo not given) | 214 to 215
34 | CC(C)CNC(=O)c1ccc(C2CC2c2ccc(Cl)cc2)cc1 (stereo not given) | 110
35 | CN(C)CCCCCNc1nc2cc(Cl)c(Cl)cc2nc1-c1ccccn1 | 100 to 102
36 | Nc1ncc(S(=O)c2cccnc2)s1 (stereo not given) | 178 to 179
37 | Cc1ccccc1OCC(O)CN (stereo not given) | 64
38 | Oc1ccnc(OC(F)F)c1 | 88.6 to 89.8
39 | CC(C)n1c(=O)nc(-c2ccc3ccccc3c2)c2cc3c(cc21)OCO3 | 213 to 215
40 | CCCCN(CCCC)c1nc(Nc2cccc3c2C(=O)c2ccccc2C3=O)nc(N(CCCC)CCCC)n1 | 128 to 133
41 | Cc1cc([N+](=O)[O-])ccc1NCCCn1ccnc1 | 163
42 | Cc1cc2c(c(C)c1NC=O)CC(C)(CI)O2 (stereo not given) | 135 to 138

Row | Compound | melting point [°C]
43 | CCC(=Cc1ccccc1)C1=CC=C2C(C1)C(C)(C)CCC2(C)C (stereo not given) | 65
44 | COc1cc(OC)c2c(=O)[nH]c(-c3cc(C)nc(C)c3)nc2c1 | 291 to 292
45 | OCc1cn(-c2ccc(SC(F)(F)F)cc2)cn1 | 145 to 147
46 | CCCCc1nc(C#N)c(C#N)n1Cc1ccc(N)cc1 | 99 to 104
47 | COc1nn(C(=S)Oc2ccccc2)c(=O)n1N | 158
48 | Oc1ccc(C(F)(F)F)c2ccccc12 | 132 to 133
49 | CO[C@@]1(C)O[C@@H]2[C@H](OCc3ccccc3)OC[C@H](OC(=O)c3ccc([N+](=O)[O-])cc3)[C@H]2O[C@]1(C)OC | 58 to 59
50 | Cc1cc(C)c(Nc2nc(C)ccc2S(=O)(=O)c2ccc(OCc3ccc(F)cc3)cc2)c(C)c1 | 178 to 180
51 | C=Cc1cc2cccnc2c(-c2cccc([N+](=O)[O-])c2)n1 | 145 to 151
52 | Cc1c(OCC(C)(C)CS(N)(=O)=O)nn2ncnc2c1C | 175 to 177
53 | c1ccc2c(c1)C[C@H]1CSC(=Nc3csc4ncccc34)N1C2 | 145 to 146
54 | O=C(O)/C=C(/C#Cc1ccccc1)c1ccccc1 | 124 to 126
55 | CS(=O)(=O)c1ccc(Oc2ccc(Cl)c(Cl)c2)c(C#N)c1 | 162 to 163
56 | CC(=O)c1c(-c2ccccc2Cl)nc2occn12 | 121 to 122
57 | N#Cc1cnc2ccc(N)cc2c1Nc1ccc(F)c(Br)c1 | 210 to 212
58 | CC(C)(Cl)C(COCc1ccc([N+](=O)[O-])o1)N=O (stereo not given) | 134 to 135
59 | CCCCCCS(=O)(=O)c1c(O)cc(C)oc1=O | 65 to 66
60 | OC(CNC1CC1)c1cccc(Cl)c1 (stereo not given) | 71.3 to 73.2
61 | COc1cccc(CC(=O)NCc2ccccc2Cl)c1 | 89 to 91

Further lines, results first:

Row | melting point [°C] | Compound
62 | 209 | CCOC(=O)c1cn(C)c2nc3c(F)c(N4CCNC(c5ccc(OC)cc5)C4)c(F)cc3cc2c1=O (racemic)
63 | 215 to 216 | COc1ccc(Cn2c(=O)c3cnc(Nc4ccc(N5CCN(C)CC5)cc4)nc3n(C(C)C)c2=O)cc1
64 | 133 to 135 | COC(=O)c1ccc2c(-c3ccccc3)cc(=O)oc2c1
65 | 100 to 102 | C=C1CN(c2c(F)cc3c(=O)c(C(=O)O)cn([C@@H]4C[C@@H]4F)c3c2OC)C[C@@]1(C)N
66 | 124 to 126 | COC(=O)/C=C/C(=O)OCC(=O)N1CCOCC1
67 | 110 to 112 | CCCCCC(CC(=O)O)c1cc(C=O)c(OC)cc1OC (stereo not given)
68 | 146 to 147 | C=CCc1c(C(=O)OCC)nc2ccccc2c1O
69 | 225 to 230 | CCOC(=O)c1ncc2[nH]c3ccc(C(=S)N4CCCCC4)cc3c2c1C
70 | 71 to 73 | CC(=O)C[C@@H](Cc1ccccc1)C(=O)O
71 | 235 to 238 | CC(C)CNC(=O)Nc1c(C(=O)c2ccccc2)[nH]c2cc(Cl)ccc12
72 | 63 to 64 | COCCOc1ccc(C=NOC)cc1O
73 | 190 to 192 | O=C(/C=C/c1ccc(NS(=O)(=O)c2ccc(-c3ccccc3)cc2)cc1)NO
74 | 155 | COc1ccc(/C=C(\CSC(C)=O)C(=O)O)cc1
75 | 170 to 171 | COc1cc2ncnc(Nc3ccc(F)c(Cl)c3)c2cc1OCCCC1OCCO1
76 | 109 to 110 | CCCCNc1n[nH]c(C)c1C(=O)OCC
77 | 233 | O=C(O)C1=C(SCc2ccccc2)CCC1
78 | 165 | CS(=O)(=O)N1CCN([C@@H](CNS(=O)(=O)c2ccc(OCc3ccccc3)cc2)C(=O)NO)CC1
79 | 170 | COc1cc(CC(=O)N2CCN(c3nsc4ccccc34)CC2)c([N+](=O)[O-])cc1OC
80 | 95 to 97 | CC(C)C[C@H](NC(=O)NCc1ccccc1)C(=O)N[C@@H](Cc1ccccc1)C(=O)CSCc1ccco1
81 | 108 to 110 | CCOC(=O)N1CCN2c3ccccc3Cc3ccccc3C2C1 (stereo not given)

Row | melting point [°C] | Compound
82 | 167 | COc1ccc(N2CCN(c3ccc(N(C)C4=NC(C)(C)CS4)cc3)CC2)cc1
83 | 144 to 146 | CN(C)C(=O)C1(c2cc(C#N)ccc2O)CCCC1
84 | 133 | COCCO[C@@H]1c2ccc3c(nc(C4CC4)n3C)c2O[C@H](c2ccccc2)[C@H]1O
85 | 60 to 63 | CCCC[C@H](NC(=O)[C@H](CCCCNC(=O)OC(C)(C)C)NC(=O)OCc1ccccc1)C(=O)CSCc1ccco1
86 | 147 to 149 | COc1ccccc1N1CCN(CC(O)COc2ccccc2-c2ccnc(N)n2)CC1 (stereo not given)
87 | 144 to 146 | CON1CCC2(CC1)C(O)=C(c1c(C)cc(C)cc1C)C(=O)N2OC1CCCO1 (stereo not given)
88 | 191 to 193 | O=C(Cc1ccc(Cl)c(Cl)c1)NCc1ccc2c(c1)CN(C1CCC(=O)NC1=O)C2=O (stereo not given)
89 | 163 to 165 | CC(=O)OC1CCCC(n2cnc3cc(Cl)c(Cl)cc32)C1OC(C)=O (stereo not given)
90 | 315 | O=C(O)c1ccccc1C(=O)c1cccc(NC(=O)c2ccn3c2CSC3c2cccnc2)c1 (stereo not given)
91 | 91 to 92 | CCOC(=O)c1c(CN(CC)CC)nc2sc3c(c2c1-c1ccc(OC)c(OC)c1)CN(C(=O)c1ccc(Cl)cc1)CC3
92 | 101 to 102 | CCOC(=O)C1CCn2c1cc(C)c2C(=O)c1ccc(SC)n1C (stereo not given)
93 | 107 to 111 | CCOC(=O)C(=CNc1nncs1)C(=O)OCC
94 | 211 to 213 | CC1(C)N(C=O)CC(=O)N1CC(N)=O
95 | 198 to 199 | CC(C)(C)OCOc1cc(NC(=O)NC(=O)c2ccc(C(N)=S)cc2)ccc1OCC(=O)OC(C)(C)C
96 | 142 to 146 | O=C(CC1(c2ccccc2)CCC1)C(=O)Nc1ccc2c(c1)COC2=O
97 | 167 to 169 | CC(C)(C)OC(=O)N1CCCC1C(=O)Nc1cccc(-c2cc(-c3ccccc3O)nc(NC(=O)c3cccs3)c2C#N)c1 (stereo not given)
98 | 165 to 167 | CC(=O)N1CCN(c2ccc(NS(C)(=O)=O)cc2)CC1
99 | 109 to 112 | CC(C)(C)OC(=O)NCC1(O)CCN(Cc2ccccc2)CC1
100 | 258 to 260 | COc1ccc(C(=O)Oc2ccc(C(=O)O)cc2F)cc1C12CC3CC(CC(C3)C1)C2
